Substitutions are numbered along the chain they refer to. Like-named read-outs stand apart in the source and are kept apart here.
How the values were obtained:
[1] = target: T1, mutant MGL (Homo sapiens, UniProt Q99685, L169S/L176S); experiment: MGL ThermoFluor assay - mutant; assay type: binding
T1 sequence (Q99685 1-303 L169S/L176S): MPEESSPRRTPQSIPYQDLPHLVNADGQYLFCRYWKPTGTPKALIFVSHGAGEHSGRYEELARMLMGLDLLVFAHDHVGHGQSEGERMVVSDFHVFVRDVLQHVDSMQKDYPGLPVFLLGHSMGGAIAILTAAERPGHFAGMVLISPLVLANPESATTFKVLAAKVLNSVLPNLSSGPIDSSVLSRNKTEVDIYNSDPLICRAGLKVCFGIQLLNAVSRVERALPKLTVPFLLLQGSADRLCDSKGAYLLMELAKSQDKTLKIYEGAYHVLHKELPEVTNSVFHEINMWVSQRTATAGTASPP

[2] = target: T2, purified wild type MGL (wt-MGLL 6H-11-313) (Homo sapiens, UniProt Q99685)
T2 sequence (Q99685 1-303): T1 sequence (Q99685 1-303 L169S/L176S) with S169L, S176L

[3] = ThermoFluor concentration-response, read-out: MGL mutant ThermoFluor Kd
[4] = ThermoFluor thermal stability binding assay, read-out: MGL mutant ThermoFluor Kd
[5] = ThermoFluor, compound concentration measured by qNMR, read-out: MGL mutant ThermoFluor qKd (μM) (using qNMR conc.)

| SMILES | Kd [1, 3] [µM] | IC50 [2] [nM] | Kd [1, 4] [µM] | Kd [1, 5] [µM] |
| --- | --- | --- | --- | --- |
| Cc1nc2cc(C(=O)N3CC(N4CCN(C(=O)c5ccccc5)CC4)C3)ccc2n1C1CCCCC1 [Cpd 37, 1-Cyclohexyl-2-methyl-5-({3-[4-(phenylcarbonyl)piperazin-1-yl]azetidin-1-yl}carbonyl)-1H-benzimidazole] | 0.1 | 5990 |  |  |
| CC1CN(C(=O)c2nccs2)CCN1C1CN(C(=O)c2ccc(Cc3ccccc3)cc2)C1 (stereo not drawn) [Cpd 47, 1-{1-[(4-Benzylphenyl)carbonyl]azetidin-3-yl}-2-methyl-4-(1,3-thiazol-2-ylcarbonyl)piperazine] | 0.0909 | 129 |  |  |
| O=C(c1ccc(-c2cccc(C(F)(F)F)c2)cc1)N1CC(N2CCN(C(=O)c3nccs3)CC2)C1 [Cpd 237, 1-(1,3-Thiazol-2-ylcarbonyl)-4-(1-{[3′-(trifluoromethyl)biphenyl-4-yl]carbonyl}azetidin-3-yl)piperazine] |  | < 5 | 0.001 |  |
| Cc1ccc2c(C(F)(F)F)c(C(=O)N3CC(N4CCN(C(=O)c5ccccc5)CC4)C3)sc2c1 [Cpd 510, 1-(1-{[6-Methyl-3-(trifluoromethyl)-1-benzothiophen-2-yl]carbonyl}azetidin-3-yl)-4-(phenylcarbonyl)piperazine] | 0.068 | 181 |  |  |
| CC(C)=Cc1c(C(=O)N2CC(N3CCN(C(=O)c4ccccc4)CC3)C2)sc2cc(C(F)(F)F)ccc12 [Cpd 511] |  | 240 | 0.002 |  |
| O=C(c1ccccc1)N1CCN(C2CN(C(=O)c3ccc(Oc4cccc(C(F)(F)F)c4)nc3)C2)CC1 [Cpd 514] | 0.727 | 454 |  |  |
| O=C(c1ccccc1)N1CCN(C2CN(C(=O)c3sc4cc(C(F)(F)F)ccc4c3C3CC3)C2)CC1 [Cpd 515] |  | 455 | 0.011 |  |
| Cc1c(C(=O)N2CC(N3CCN(C(=O)c4ccccc4)CC3)C2)sc2cc(F)ccc12 [Cpd 516] |  | 465 | 0.04 |  |
| O=C(c1ccccc1)N1CCN(C2CN(C(=O)c3ccc(Oc4cccc(Cl)c4)nc3)C2)CC1 [Cpd 519, 1-(1-{[6-(3-Chlorophenoxy)pyridin-3-yl]carbonyl}azetidin-3-yl)-4-(phenylcarbonyl)piperazine] | 0.962 | 1620 |  |  |
| O=C(c1ccccc1)N1CCN(C2CN(C(=O)c3ccc(Oc4ccc(Cl)cn4)cc3)C2)CC1 [Cpd 520] | 2 | 2030 |  |  |
| Cc1nc2cc(C(=O)N3CCN(C4CN(C(=O)c5ccccc5)C4)CC3)ccc2n1C1CCCCC1 [Cpd 523] | 0.686 | 3130 |  |  |
| O=C(c1ccccc1)N1CCN(C2CN(C(=O)c3ccc(Oc4cccnc4)cc3)C2)CC1 [Cpd 527] | 10 | 8570 |  |  |
| O=C(c1ccccc1)N1CCN(C2CN(C(=O)c3ccc(F)c(Cc4ccc(C(F)(F)F)cc4)c3)C2)CC1 [Cpd 563] | 2.11 | 2490 |  |  |
| O=C(c1ccccc1)N1CCN(C2CN(C(=O)c3ccc(CS(=O)(=O)c4cccc(C(F)(F)F)c4)cc3)C2)CC1 [Cpd 564] | 10 | 5400 |  |  |
| Cc1cc(-n2ccc3cc(C(=O)N4CC(N5CCN(C(=O)c6ccccc6)CC5)C4)ccc32)ccc1C#N [Cpd 566, 2-Methyl-4-[5-({3-[4-(phenylcarbonyl)piperazin-1-yl]azetidin-1-yl}carbonyl)-1H-indol-1-yl]benzonitrile] |  | 14 |  | 0.031 |
| O=C(c1ccccc1)N1CCN(C2CN(C(=O)c3ccc4c(ccn4-c4ccc(Cl)c(F)c4)c3)C2)CC1 [Cpd 568] |  | 72 |  | 0.099 |
| O=C(c1cscn1)N1CCN(C2CN(C(=O)c3nc4cc(Cl)ccc4s3)C2)CC1 [Cpd 855] |  | 8440 |  |  |

| SMILES | Kd [1, 3] [µM] | IC50 [2] [nM] | Kd [1, 4] [µM] | Kd [1, 5] [µM] |
| --- | --- | --- | --- | --- |
| Cc1c(C(=O)N2CC(N3CCN(C(=O)c4cscn4)CC3)C2)oc2c(F)cccc12 [Cpd 871] |  | 13300 |  |  |
| O=C(c1ccc2c(c1)CCN(Cc1cccc(C(F)(F)F)c1)C2)N1CC(N2CCN(C(=O)c3nccs3)CC2)C1 [Cpd 879] |  | < 5 |  |  |
| O=C(c1ccc2[nH]c(CCc3ccccc3)nc2c1)N1CC(N2CCN(C(=O)c3nccs3)CC2)C1 [Cpd 1000] |  | 111 |  |  |
| O=C(c1ccc2nc(CCc3ccccc3)[nH]c2c1)N1CCN(C2CN(C(=O)c3cscn3)C2)CC1 [Cpd 1002] |  | 5290 |  |  |
| O=C(c1ccc2[nH]c(Cc3ccccc3)nc2c1)N1CC(N2CCN(C(=O)c3cscn3)CC2)C1 [Cpd 1003] |  | 1610 |  |  |
| O=C(c1ccc2[nH]c(Cc3ccccc3)nc2c1)N1CC(N2CCN(C(=O)c3nccs3)CC2)C1 [Cpd 1004] |  | 167 |  |  |
| Cn1cc(-c2cccc(C(F)(F)F)c2)c2ccc(C(=O)N3CC(N4CCN(C(=O)c5nccs5)CC4)C3)cc21 [Cpd 1100] |  | 12 |  |  |
| Cc1ccc(-n2nc(C)c(C(=O)N3CC(N4CCN(C(=O)c5nccs5)CC4)C3)n2)cc1 [Cpd 1214] |  | 209 |  |  |
| Cc1nn(-c2ccc(Cl)cc2)nc1C(=O)N1CC(N2CCN(C(=O)c3nccs3)CC2)C1 [Cpd 1218] |  | 222 |  |  |
| O=C(c1ccc2nc(-c3ccccc3)oc2c1)N1CCN(C2CN(C(=O)c3cscn3)C2)CC1 [Cpd 1275] |  | 1720 |  |  |
| O=C(c1nccs1)N1CCN(C2CN(C(=O)c3cnn(-c4ccccc4)c3-c3ccccc3)C2)CC1 [Cpd 1297] |  | 3310 |  |  |
| Cc1nn(-c2ccc(F)cc2)c(C)c1C(=O)N1CC(N2CCN(C(=O)c3nccs3)CC2)C1 [Cpd 1301] |  | 4610 |  |  |
| O=C(c1cscn1)N1CCN(C2CN(C(=O)c3nc4ccc(F)cc4[nH]3)C2)CC1 [Cpd 1442] |  | > 16700 |  |  |
| Cc1c(-c2ccccc2)oc2c(C(=O)N3CCN(C4CN(C(=O)c5ccccc5)C4)CC3c3ccccc3)cccc2c1=O (stereo not drawn) [Cpd 1489] |  | > 16700 |  |  |
| O=C(c1ccc(S(=O)(=O)c2cccc(C(F)(F)F)c2)cc1)N1CC(N2CCN(C(=O)C(F)(F)F)CC2)C1 [Cpd 1493] |  | > 16700 |  |  |
| O=C(c1ccc(CS(=O)(=O)c2cccc(C(F)(F)F)c2)cc1)N1CC(N2CCN(C(=O)C(F)(F)F)CC2)C1 [Cpd 1498] |  | > 16700 |  |  |

The next lines start with the values.

| Kd [1, 3] [µM] | IC50 [2] [nM] | Kd [1, 4] [µM] | Kd [1, 5] [µM] | SMILES |
| --- | --- | --- | --- | --- |
| 0.0033 | < 5 |  |  | O=C(c1ccc(-c2ccc(C(F)(F)F)cc2)cc1)N1CC(N2CCN(C(=O)c3nccs3)CC2)C1 [Cpd 150, 1-(1,3-Thiazol-2-ylcarbonyl)-4-(1-{[4′-(trifluoromethyl)biphenyl-4-yl]carbonyl}azetidin-3-yl)piperazine] |
|  | 80.8 | 0.05 |  | O=C(c1ccccc1)N1CCN(C2CN(C(=O)c3ccc(-c4cccc(C(F)(F)F)c4)cc3Cl)C2)CC1 [Cpd 252, 1-(1-{[3-Chloro-3′-(trifluoromethyl)biphenyl-4-yl]carbonyl}azetidin-3-yl)-4-(phenylcarbonyl)piperazine] |
| 0.05 | 260 |  |  | O=C(c1ccccc1)N1CCN(C2CN(C(=O)c3sc4cc(Cl)ccc4c3C(F)(F)F)C2)CC1 [Cpd 512] |
| 0.009 | 371 |  |  | O=C(c1ccccc1)N1CCN(C2CN(C(=O)c3sc4cc(F)ccc4c3C3CCC3)C2)CC1 [Cpd 513] |
| 0.05 | 1340 |  |  | O=C(c1ccccc1)N1CC(N2CCN(C(=O)c3cc4cc(C(F)(F)F)ccc4s3)C(c3ccccc3)C2)C1 (stereo not drawn) [Cpd 517] |
| 2.5 | 6990 |  |  | O=C(c1ccccc1)N1CCN(C2CN(C(=O)c3ccc(Oc4ccccn4)c(Cl)c3)C2)CC1 [Cpd 525] |
| 4.98 | 8100 |  |  | COc1cccc2c(C)c(C(=O)N3CC(N4CCN(C(=O)c5ccccc5)CC4)C3)[nH]c12 [Cpd 526] |
|  | 51 |  | 0.083 | O=C(c1ccccc1)N1CCN(C2CN(C(=O)c3ccc4c(cnn4-c4ccc(C(F)(F)F)cc4)c3)C2)CC1 [Cpd 575, 5-({3-[4-(Phenylcarbonyl)piperazin-1-yl]azetidin-1-yl}carbonyl)-1-[4-(trifluoromethyl)phenyl]-1H-indazole] |
|  | 1400 |  |  | O=C(c1ccc2nc(Cc3ccccc3)[nH]c2c1)N1CCN(C2CN(C(=O)c3nccs3)C2)CC1 [Cpd 1001] |
|  | < 5 |  |  | Cn1cc(Cc2cccc(F)c2)c2ccc(C(=O)N3CC(N4CCN(C(=O)c5nccs5)CC4)C3)cc21 [Cpd 1033, 3-(3-Fluorobenzyl)-1-methyl-6-({3-[4-(1,3-thiazol-2-ylcarbonyl)piperazin-1-yl]azetidin-1-yl}carbonyl)-1H-indole] |
|  | 9 |  |  | Cn1cc(-c2cccc(C(F)(F)F)c2)c2ccc(C(=O)N3CC(N4CCN(C(=O)c5cscn5)CC4)C3)cc21 [Cpd 1084] |
|  | 204 |  |  | Cc1cc(-c2cccc(C(F)(F)F)c2)ccc1C(=O)N1CCN(C2CN(C(=O)c3cscn3)C2)CC1 [Cpd 1212] |
|  | < 5 |  |  | Cn1cc(-c2ccc(F)cc2)c2ccc(C(=O)N3CC(N4CCN(C(=O)c5nccs5)CC4)C3)cc21 [Cpd 1318, 3-(4-Fluorophenyl)-1-methyl-6-({3-[4-(1,3-thiazol-2-ylcarbonyl)piperazin-1-yl]azetidin-1-yl}carbonyl)-1H-indole] |
|  | > 16700 |  |  | Cc1c(-c2ccccc2)oc2c(C(=O)N3CCN(C4CN(C(=O)c5cscn5)C4)CC3c3ccccc3)cccc2c1=O (stereo not drawn) [Cpd 1436] |
|  | > 16700 |  |  | Cc1nc2cc(C(=O)N3CC(N4CCN(C(=O)c5cscn5)CC4)C3)ccc2n1C1CCC(F)(F)CC1 [Cpd 1506] |

From patent US8362000B2, “Azetidinyl diamides as monoacylglycerol lipase inhibitors” (Janssen Pharmaceutica NV, priority 2009, dated 2013)
